We go through 16 compounds from patent publication EP4752152A1, “STEROID COMPOUND, AND PREPARATION METHOD THEREFOR AND USE THEREOF” (Cholesgen (Shanghai) Co.Ltd., priority 2023, dated 2025).

Like-named read-outs stand apart in the source and are kept apart here.

The subject of one assay is SREBP pathway. Put plainly: SREBP luciferase reporter gene system (SRE-luciferase assay). It is filed as cell-based, human. To be noted: Huh-7/SRE-luc cells, sterol-deficient medium, 0.01-10 µM. In short, it runs like this:
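Huh-7 cells stably carrying LDLR promoter-luciferase plus GFP were treated 16 h in sterol-deficient medium (5% lipoprotein-deficient serum, 2 µM lovastatin, 10 µM mevalonic acid) at 0.01–10 µM. Luciferase/GFP ratio measured as pathway activity; inhibition versus DMSO fitted to a four-parameter model for IC50.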
In general terms: In a reporter assay the amount or activity of a reporter protein is the signal.

The test system of assay [1] is Fatty Acid Synthase (FASN) gene. The experiment in a line: Inhibition of FASN gene expression (qPCR) in Huh-7 cells. It is filed as cell-based, human. As for the experimental part: Huh-7 cells (purchased from ATCC) were cultured in DMEM medium (containing 10% fetal bovine serum LONSERA S711-001S) at 37°C in a 5% CO2 incubator. After 24 hours, the original medium was aspirated and replaced with DMEM starvation medium (containing 5% lipoprotein deficient serum (LPDS), 2 µM lovastatin, and 10 µM mevalonate). The control group was treated with dimethyl sulfoxide (DMSO), while the compound treatment groups were treated with different concentrations of compounds. The highest concentration of the compound was 3000 nM, with 3-fold dilutions, totaling 5 concentrations. The cells were cultured for 16 hours. Cell lysis was performed, followed by reverse transcription from cells to cDNA, and qPCR was performed to detect the expression of the SREBP target gene Fatty Acid Synthase (FASN) gene (FASN gene forward primer sequence: 5'-[…]-3', reverse primer sequence: 5'-[…]-3'). The IC50 was calculated. The test data for each test compound were analyzed using Prism software (with the DMSO-treated group as the reference to calculate the compound inhibition rate, fitted using the Prism log(inhibitor) vs. responseVariable slope (four-parameter) model, calculation formula: Y = Bottom + (Top - Bottom)/(1 + 10^((LogIC50 - X) × HillSlope))), to obtain the IC50 parameters of the compounds. Table 4: Inhibition results of FASN gene expression by compounds from some examples
For orientation: Quantitative PCR measures a nucleic acid by following its amplification.

The mark [2] stands for this setting: Homo sapiens, Huh-7, 16 h, Huh-7 cells, starvation medium, 16 hours, qPCR; class symbols; read-out: FASN IC50.

`COc1cccc(F)c1C(O)CC[C@@H](C)[C@H]1CC[C@H]2[C@H]3[C@H](CC[C@]12C)[C@@]1(C)CC[C@H](O)[C@H](O)[C@@H]1CC3(F)F` (single isomer, unassigned) [Compound 336]: the IC50 (commonly the point on the concentration scale where inhibition reaches its midpoint) in the assay on SREBP pathway (Homo sapiens, Huh-7, 16 h) was 0.31 µM; in assay [1] (setting [2]), < 200 nM.
For `COc1nc(F)ccc1[C@H](O)CCC[C@@H](C)[C@H]1CC[C@H]2[C@H]3[C@H](CC[C@]12C)[C@@]1(C)CC[C@H](O)C(=O)[C@@H]1CC3(F)F` (single isomer, unassigned) [Compound 260], in that order: 0.03 µM and < 200 nM.
Taken in the same sequence, the figures for `COc1ccc(C(O)CCC[C@@H](C)[C@H]2CC[C@H]3[C@H]4[C@H](CC[C@]23C)[C@@]2(C)CC[C@H](O)[C@H](O)[C@@H]2CC4(F)F)c(OC)n1` (stereo partly drawn) [Compound 177, (1R,3aS,3bS,5aR,6R,7 S,9aR,9bS,11aR)-1-[(2R)-6-(2,6-Dimethoxypyridin-3-yl)-6-hydroxyhexan-2-yl]-4,4-difluoro-9a,11a-dimethylhexadecahydro-1H-cyclopenta[1,2-a]phenanthrene-6,7-diol] were 0.186 µM and < 200 nM.
Turning to `C[C@H](CCCC(O)c1ccc(F)cc1)[C@H]1CC[C@H]2C3=C(F)C[C@H]4[C@@H](O)[C@@H](O)CC[C@]4(C)[C@H]3CC[C@]12C` (stereo partly drawn) [Compound 101, (1R,3aR,5aR,6R,7S,9aR,9bR,11aR)-4-fluoro-1-[(2R)-6-(4-fluorophenyl)-6-hydroxyhexan-2-yl]-9a,11a-dimethyl-2,3,3a,5,5a,6,7,8,9,9a,9b,10,11,11a-tetradecahydro-1H-cyclopenta[1,2-a]phenanthrene-6,7-diol], the IC50 is 0.298 µM in the assay with SREBP pathway (Homo sapiens, Huh-7, 16 h) and 200 to 500 nM in assay [1] (setting [2]).
Consider `COc1ncccc1C(O)CCC[C@@H](C)[C@H]1CC[C@H]2[C@H]3[C@H](CC[C@]12C)[C@@]1(C)CC[C@H](O)[C@H](O)[C@@H]1CC3(F)F` (single isomer, unassigned) [Compound 193, (1R,3aS,3bS,5aR,6R,7S,9aR,9bS,11aR)-4,4-difluoro-1-[(2R,6R)-6-hydroxy-6-(2-methoxypyridin-3-yl)hexan-2-yl]-9a,11a-dimethylhexadecahydro-1H-cyclopenta[1,2-a]phenanthrene-6,7-diol or (1R,3aS,3bS,5aR,6R,7S,9aR,9bS,11aR)-4,4-difluoro-1-[(2R,6S)-6-hydroxy-6-(2-methoxypyridin-3-yl)hexan-2-yl]-9a,11a-dimethylhexadecahydro-1H-cyclopenta[1,2-a]phenanthrene-6,7-diol], for which the IC50 in the assay on SREBP pathway (16 hours) was 0.072 µM; in assay [1] (Huh-7 cells, starvation medium, 16 hours, qPCR; class symbols; read-out: FASN IC50) it was 200 to 500 nM.
For `C[C@H](CCCC(O)c1cccc2ncn(C)c12)[C@H]1CC[C@H]2[C@H]3[C@H](CC[C@]12C)[C@@]1(C)CC[C@H](O)[C@H](O)[C@@H]1CC3(F)F` (stereo partly drawn) [Compound 261, (1R,3aS,3bS,5aR,6R,7 S,9aR,9bS,11aR)-4,4-Difluoro-1-[(2R)-6-hydroxy-6-(3-methylbenzo[d]imidazol-4-yl)hexan-2-yl]-9a,11a-dimethylhexadecahyd ro-1H-cyclopenta[1,2-a]phenanthrene-6,7-diol], the IC50 in the assay with SREBP pathway (Homo sapiens, Huh-7, 16 h) was 0.001 µM; in assay [1] (setting [2]), < 200 nM.
For `COc1ncccc1C(O)CCC[C@@H](C)[C@H]1CC[C@H]2C3=C(F)C[C@H]4[C@@H](O)[C@@H](O)CC[C@]4(C)[C@H]3CC[C@]12C` (some centres unmarked) [Compound 83], in that order: 0.092 µM and 200 to 500 nM.
Regarding `C[C@H](CCC[C@@H](O)c1nc2ccccc2n1C)[C@H]1CC[C@H]2[C@H]3[C@H](CC[C@]12C)[C@@]1(C)CC[C@H](O)[C@H](O)[C@@H]1CC3(F)F` [Compound 307, (1R,3aS,3bS,5aR,6R,7S,9aR,9bS,11aR)-4,4-difluoro-1-[(2R,6R)-6-hydroxy-6-(1-methylbenzo[d]imidazol-2-yl)hexan-2-yl]-9a,11a-dimethylhexadecahydro-1H-cyclopenta[1,2-a]phenanthrene-6,7-diol], the IC50 with SREBP pathway (Homo sapiens, Huh-7, 16 h) is 0.054 µM; in assay [1] (setting [2]), < 200 nM.
For `COc1cc(Cl)ccc1[C@H](O)CCC[C@@H](C)[C@H]1CC[C@H]2[C@H]3[C@H](CC[C@]12C)[C@@]1(C)CC[C@H](O)[C@H](O)[C@@H]1CC3(F)F` [Compound 113, (1R,3aS,3bS,5aR,6R,7S,9aR,9bS,11aR)-1-[(2R,6R)-6-(4-chloro-2-methoxyphenyl)-6-hydroxyhexan-2-yl]-4,4-difluoro-9a,11a-dimethylhexadecahydro-1H-cyclopenta[1,2-a]phenanthrene-6,7-diol], in that order: 0.228 µM and 200 to 500 nM.
For `COc1cc(F)nc(F)c1[C@H](O)CCC[C@@H](C)[C@H]1CC[C@H]2[C@H]3[C@H](CC[C@]12C)[C@@]1(C)CC[C@H](O)[C@H](O)[C@@H]1CC3(F)F` (single isomer, unassigned) [Compound 262], in that order: 0.017 µM and < 200 nM.
For `C[C@H](CCCC(O)c1nccs1)[C@H]1CC[C@H]2[C@H]3[C@H](CC[C@]12C)[C@@]1(C)CC[C@H](O)[C@H](O)[C@@H]1CC3(F)F` (stereo partly drawn) [Compound 89, (1R,3aS,3bS,5aR,6R,7S,9aR,9bS,11aR)-4,4-difluoro-1-[(2R)-6-hydroxy-6-(1,3-thiazol-2-yl)hexan-2-yl]-9a,11a-dimethylhexadecahydro-1H-cyclopenta[1,2-a]phenanthrene-6,7-diol], in that order: 0.183 µM and < 200 nM.
For the compound `C[C@H](CCCC(O)c1cccc2c1OC(F)(F)O2)[C@H]1CC[C@H]2[C@H]3[C@H](CC[C@]12C)[C@@]1(C)CC[C@H](O)[C@H](O)[C@@H]1CC3(F)F` (single isomer, unassigned) [Compound 194, (1R,3aS,3bS,5aR,6R,7S,9aR,9bS,11aR)-1-[(2R,6S)-6-(2,2-difluorobenzo[d][1,3]dioxol-4-yl)-6-hydroxyhexan-2-yl]-4,4-difluoro-9a,11a-dimethylhexadecahydro-1H-cyclopenta[1,2-a]phenanthrene-6,7-diol or (1R,3aS,3bS,5aR,6R,7S,9aR,9bS,11aR)-1-[(2R,6R)-6-(2,2-difluorobenzo[d][1,3]dioxol-4-yl)-6-hydroxyhexan-2-yl]-4,4-difluoro-9a,11a-dimethylhexadecahydro-1H-cyclopenta[1,2-a]phenanthrene-6,7-diol], the IC50 was 0.102 µM in the assay with SREBP pathway (Homo sapiens, Huh-7, 16 h) and 200 to 500 nM in assay [1] (setting [2]).
Consider `COc1cccc(F)c1C(CCC[C@@H](C)[C@H]1CC[C@H]2[C@H]3[C@H](CC[C@]12C)[C@@]1(C)CC[C@H](O)[C@H](O)[C@@H]1CC3(F)F)=NO` (single isomer, unassigned) [Compound 210, [(1E,5R)-5-[(1R,3aS,3bS,5aR,6R,7S,9aR,9bS,11aR)-4,4-difluoro-6,7-dihydroxy-9a,11a-dimethylhexadecahydro-1H-cyclopenta[1,2-a]phenanthren-1-yl]-1-(2-fluoro-6-methoxyphenyl)hexylidene]hydroxylamine or [(1Z,5R)-5-[(1R,3aS,3bS,5aR,6R,7S,9aS,9bS,11aR)-4,4-difluoro-6,7-dihydroxy-9a,9b,11a-trimethylhexadecahydro-1H-cyclopenta[1,2-a]phenanthren-1-yl]-1-(2-fluoro-6-methoxyphenyl)hexylidene]hydroxylamine], for which the IC50 in the assay on SREBP pathway (16 hours) was 0.017 µM; in assay [1] (Homo sapiens, Huh-7, 16 h, read-out: FASN IC50) it was < 200 nM.
As to `C[C@H](CCCC(O)c1ccc2c(n1)OC(F)(F)O2)[C@H]1CC[C@H]2[C@H]3[C@H](CC[C@]12C)[C@@]1(C)CC[C@H](O)[C@H](O)[C@@H]1CC3(F)F` (single isomer, unassigned) [Compound 266], the IC50 in the assay on SREBP pathway (16 hours) is 0.099 µM; in assay [1] (read-out: FASN IC50; Huh-7 cells, starvation medium, 16 hours, qPCR; class symbols), < 200 nM.
Turning to `C[C@H](CCCC(O)c1cccc(OC(F)(F)F)c1)[C@H]1CC[C@H]2[C@H]3[C@H](CC[C@]12C)[C@@]1(C)CC[C@H](O)[C@H](O)[C@@H]1CC3(F)F` (single isomer, unassigned) [Compound 191, (1R,3aS,3bS,5aR,6R,7S,9aR,9bS,11aR)-4,4-difluoro-1-[(2R,6R)-6-hydroxy-6-{3-[(trifluoromethyl)oxy]phenyl}hexan-2-yl]-9a,11a-dimethylhexadecahydro-1H-cyclopenta[1,2-a]phenanthrene-6,7-diol or (1R,3aS,3bS,5aR,6R,7S,9aR,9bS,11aR)-4,4-difluoro-1-[(2R,6S)-6-hydroxy-6-(2-methoxypyridin-3-yl)hexan-2-yl]-9a,11a-dimethylhexadecahydro-1H-cyclopenta[1,2-a]phenanthrene-6,7-diol], the IC50 with SREBP pathway (16 hours) was 0.246 µM; in assay [1] (setting [2]) it was 200 to 500 nM.
Turning to `COc1nc(F)cc(F)c1C(O)CCC[C@@H](C)[C@H]1CC[C@H]2[C@H]3[C@H](CC[C@]12C)[C@@]1(C)CC[C@H](O)[C@H](O)[C@@H]1CC3(F)F` (stereo partly drawn) [Compound 206, (1R,3aS,3bS,5aR,6R,7S,9aR,9bS,11aR)-1-[(2R)-6-(4,6-difluoro-2-methoxypyridin-3-yl)-6-hydroxyhexan-2-yl]-4,4-difluoro-9a,11a-dimethylhexadecahydro-1H-cyclopenta[1,2-a]phenanthrene-6,7-diol], the IC50 was 0.145 µM in the assay on SREBP pathway (Homo sapiens, Huh-7, 16 h) and 200 to 500 nM in assay [1] (setting [2]).
